Values quoted from earlier work as cited in patent EP4420767A1, “MODULAR GREEN SOLVENT COMPOSITION FOR PREPARING POLYMERIC MEMBRANES” (Soft Chemicals S.r.l., priority 2023, dated 2024).

Conditions: DMSO alone

In the case of `C[S+](C)[O-]` [DMSO, Dimethyl sulfoxide], the freezing point is given as 18 °C.
